In paper PMC10247784, “Physiological activation of human and mouse bitter taste receptors by bile acids” (Communications Biology, 2023):
Where “and” joins values, the source holds several entries; their conditions need not be identical. Equal entries are not always repeated.

Molecular target: T1, human TAS2R14 (Homo sapiens, UniProt Q9NYV8)
T1 construct: expressed in transfected cells; host or cells: HEK293T-Gα16gust44
T1 sequence (Q9NYV8 1-317): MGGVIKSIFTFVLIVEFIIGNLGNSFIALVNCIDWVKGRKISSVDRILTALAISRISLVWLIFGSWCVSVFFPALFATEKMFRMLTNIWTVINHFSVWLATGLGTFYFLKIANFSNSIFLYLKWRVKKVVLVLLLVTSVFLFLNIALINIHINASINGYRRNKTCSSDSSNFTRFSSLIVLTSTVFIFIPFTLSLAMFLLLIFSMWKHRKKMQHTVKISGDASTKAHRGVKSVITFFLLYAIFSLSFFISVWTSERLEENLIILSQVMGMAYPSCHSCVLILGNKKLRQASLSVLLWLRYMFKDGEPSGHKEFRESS
Test: Calcium imaging assay (FLIPR), HEK293T-Gα16gust44 cells transfected with human TAS2R14
Type: cell-based
Conditions: for RLU: TAS2R14 trace
Experimental: This set of bile acids was chosen because of their commercial availability in high purities, their diversity within the class of bile acids and their previous detection and quantitation in human blood. Stock solutions were prepared in DMSO.
As basal growth medium for the HEK293T-Gα16gust44 cell line[17],[59] served Dulbecco’s modified eagle medium (DMEM) (Thermo Fisher Scientific, Darmstadt, Germany) supplemented with 10 % fetal bovine serum (Sigma-Aldrich, Steinheim, Germany), 2 mM L-glutamine (Sigma-Aldrich, Steinheim, Germany), 100 units/ml penicillin (Sigma Aldrich, Steinheim, Germany) and 100 µg/ml streptomycin (Sigma Aldrich, Steinheim, Germany). Growth conditions were 37 °C, 5 % CO2 and saturated air-humidity[60].
HEK293T-Gα16gust44 cells were seeded on poly-D-lysine (10 µg/ml) coated 96-well plates to reach a confluence of 40-60 % the next day. For transient transfection 150 ng of plasmid DNA containing the receptor of interest and 0.3 µl lipofectamine 2000 (Thermo Fisher Scientific, Darmstadt, Germany) per well were used and transfection took place according to the manual of lipofectamine 2000. […] The empty vector DNA (mock) was transfected as negative control[14],[41].
Cells were loaded using the calcium-sensitive fluorescent dye Fluo-4-AM (Abcam, Cambridge, Great Britain) in the presence of 2.5 mM probenecid (Sigma-Aldrich, Steinheim, Germany) the day after transfection[13],[41]. 1 h after loading, cells were washed with C1 buffer using a BioTek Cell Washer, incubated in the dark for half an hour and washed again. For automated agonist application and measurement of fluorescence changes, a FLIPR^TETRA device (Molecular Devices, San José, United States) was used. Viability of cells was tested by application of 100 nM Somatostatin 14 (Bachem, Bubendorf, Switzerland)[42].
Measured data were negative control corrected by subtracting the signal of the mock-transfected cells and exported to Microsoft Excel using the FLIPR software ScreenWorks 4.2. In Microsoft Excel software, standardization of maximum fluorescence intensities to the basal fluorescence and normalization to the buffer-only control was done to calculate the relative fluorescence changes (ΔF/F).
Initial screening experiments performed in duplicate wells were confirmed by at least one replication and representative traces were selected for display. All dose-response relationships were determined by three independent experiments (biological replicates) performed in duplicates (technical replicates). Threshold concentrations, defined as lowest substance concentrations leading to statistically significant elevated fluorescence changes in receptor-transfected cells compared with empty vector-transfected cells, were determined using SigmaPlot with Student’s t-test to evaluate statistical significance (p < 0.01).

## C[C@H](CCC(=O)O)[C@H]1CC[C@H]2[C@@H]3[C@H](O)C[C@@H]4C[C@H](O)CC[C@]4(C)[C@H]3CC[C@]12C [Chenodeoxycholic Acid, chenodeoxycholic acid]
TAS2R14, bile acids, mean
  Efficacy = maximal amplitude (ΔF/F): 0.05441
TAS2R14, bile acids, single replicates, listed as CDCA
  Efficacy (maximal amplitude ΔF/F), individual data points: 0.0148 and 0.07816 and 0.07028
TAS2R14, conc. 0,01 mM
  Δ F/F: 0.006116
TAS2R14, conc. 0,03 mM
  Δ F/F: 0.05441
TAS2R14, conc. 0,00003 mM
  Δ F/F: -0.01882
TAS2R14, conc. 0,0001 mM
  Δ F/F: -0.01861
TAS2R14, conc. 0,0003 mM
  Δ F/F: -0.02118
TAS2R14, conc. 0,001 mM
  Δ F/F: -0.02299
TAS2R14, conc. 0,003 mM
  Δ F/F: -0.02084
Time (s) 0
  RLU: 0 RLU
Time (s) 2 (Taurocholic Acid 2.016)
  RLU: -49.1645 RLU
Time (s) 4 (Taurocholic Acid 4.016)
  RLU: -25.5098 RLU
Time (s) 6 (Taurocholic Acid 6.016)
  RLU: -14.6279 RLU
Time (s) 8 (Taurocholic Acid 8.016)
  RLU: -24.697 RLU
Time (s) 12 (Taurocholic Acid 12.016)
  RLU: -44.0879 RLU
Time (s) 14 (Taurocholic Acid 14.016)
  RLU: -37.1122 RLU
Time (s) 16 (Taurocholic Acid 16.016)
  RLU: -43.9695 RLU
Time (s) 18 (Taurocholic Acid 18.016)
  RLU: -32.8497 RLU
Time (s) 18.797 (Chenodeoxycholic Acid 18.765)
  RLU: 7.956 RLU
Time (s) 20.797 (Chenodeoxycholic Acid 20.781)
  RLU: 109.495 RLU
Time (s) 22.797 (Chenodeoxycholic Acid 22.781)
  RLU: 144.429 RLU
Time (s) 24.797 (Chenodeoxycholic Acid 24.781)
  RLU: 188.481 RLU
Time (s) 26.797 (Chenodeoxycholic Acid 26.781)
  RLU: 194.457 RLU
Time (s) 28.797 (Chenodeoxycholic Acid 28.781)
  RLU: 226.874 RLU
Time (s) 30.797 (Chenodeoxycholic Acid 30.781)
  RLU: 234.892 RLU
Time (s) 32.797 (Chenodeoxycholic Acid 32.781)
  RLU: 237.826 RLU
Time (s) 34.797 (Chenodeoxycholic Acid 34.781)
  RLU: 263.919 RLU
Time (s) 36.797 (Chenodeoxycholic Acid 36.781)
  RLU: 289.916 RLU
Time (s) 38.797 (Chenodeoxycholic Acid 38.781)
  RLU: 280.38 RLU
Time (s) 40.797 (Chenodeoxycholic Acid 40.781)
  RLU: 364.7 RLU
Time (s) 42.797 (Chenodeoxycholic Acid 42.781)
  RLU: 389.665 RLU
Time (s) 44.797 (Chenodeoxycholic Acid 44.781)
  RLU: 409.588 RLU
Time (s) 46.797 (Chenodeoxycholic Acid 46.781)
  RLU: 412.285 RLU
Time (s) 48.797 (Chenodeoxycholic Acid 48.781)
  RLU: 462.382 RLU
Time (s) 50.797 (Chenodeoxycholic Acid 50.781)
  RLU: 489.05 RLU
Time (s) 52.797 (Chenodeoxycholic Acid 52.781)
  RLU: 480.824 RLU
Time (s) 54.797 (Chenodeoxycholic Acid 54.781)
  RLU: 484 RLU
Time (s) 56.797 (Chenodeoxycholic Acid 56.781)
  RLU: 514.521 RLU
Time (s) 58.797 (Chenodeoxycholic Acid 58.781)
  RLU: 561.552 RLU
Time (s) 60.797 (Chenodeoxycholic Acid 60.781)
  RLU: 547.999 RLU
Time (s) 62.797 (Chenodeoxycholic Acid 62.781)
  RLU: 553.072 RLU
Time (s) 64.797 (Chenodeoxycholic Acid 64.781)
  RLU: 596.368 RLU
Time (s) 66.797 (Chenodeoxycholic Acid 66.781)
  RLU: 582.133 RLU
Time (s) 68.797 (Chenodeoxycholic Acid 68.781)
  RLU: 591.364 RLU
Time (s) 70.797 (Chenodeoxycholic Acid 70.781)
  RLU: 612.747 RLU
Time (s) 72.797 (Chenodeoxycholic Acid 72.781)
  RLU: 626.948 RLU
Time (s) 74.797 (Chenodeoxycholic Acid 74.781)
  RLU: 600.862 RLU
Time (s) 76.797 (Chenodeoxycholic Acid 76.781)
  RLU: 644.716 RLU
Time (s) 78.797 (Chenodeoxycholic Acid 78.781)
  RLU: 648.451 RLU
Time (s) 80.797 (Chenodeoxycholic Acid 80.781)
  RLU: 604.524 RLU
Time (s) 82.797 (Chenodeoxycholic Acid 82.781)
  RLU: 653.18 RLU
Time (s) 84.797 (Chenodeoxycholic Acid 84.781)
  RLU: 678.438 RLU
Time (s) 86.797 (Chenodeoxycholic Acid 86.781)
  RLU: 660.126 RLU
Time (s) 88.797 (Chenodeoxycholic Acid 88.781)
  RLU: 638.796 RLU
Time (s) 90.797 (Chenodeoxycholic Acid 90.781)
  RLU: 637.499 RLU
Time (s) 92.797 (Chenodeoxycholic Acid 92.781)
  RLU: 628.913 RLU
Time (s) 94.797 (Chenodeoxycholic Acid 94.781)
  RLU: 638.53 RLU
Time (s) 96.797 (Chenodeoxycholic Acid 96.781)
  RLU: 632.564 RLU
Time (s) 98.797 (Chenodeoxycholic Acid 98.781)
  RLU: 628.21 RLU
Time (s) 100.797 (Chenodeoxycholic Acid 100.781)
  RLU: 613.502 RLU
Time (s) 102.797 (Chenodeoxycholic Acid 102.781)
  RLU: 604.41 RLU
Time (s) 104.797 (Chenodeoxycholic Acid 104.781)
  RLU: 599.892 RLU
Time (s) 106.797 (Chenodeoxycholic Acid 106.781)
  RLU: 563.223 RLU
Time (s) 108.797 (Chenodeoxycholic Acid 108.781)
  RLU: 594.081 RLU
Time (s) 110.797 (Chenodeoxycholic Acid 110.781)
  RLU: 586.278 RLU
Time (s) 112.797 (Chenodeoxycholic Acid 112.781)
  RLU: 550.791 RLU
Time (s) 114.797 (Chenodeoxycholic Acid 114.781)
  RLU: 544.911 RLU
Time (s) 116.797 (Chenodeoxycholic Acid 116.781)
  RLU: 535.277 RLU
Time (s) 118.797 (Chenodeoxycholic Acid 118.781)
  RLU: 521.394 RLU
Time (s) 120.797 (Chenodeoxycholic Acid 120.781)
  RLU: 516.9 RLU
Time (s) 122.797 (Chenodeoxycholic Acid 122.781)
  RLU: 506.351 RLU
Time (s) 124.797 (Chenodeoxycholic Acid 124.781)
  RLU: 491.947 RLU
Time (s) 126.797 (Chenodeoxycholic Acid 126.781)
  RLU: 464.952 RLU
Time (s) 128.797 (Chenodeoxycholic Acid 128.781)
  RLU: 465.396 RLU
Time (s) 130.797 (Chenodeoxycholic Acid 130.781)
  RLU: 467.418 RLU
Time (s) 132.797 (Chenodeoxycholic Acid 132.781)
  RLU: 469.949 RLU
Time (s) 134.797 (Chenodeoxycholic Acid 134.781)
  RLU: 415.628 RLU
Time (s) 136.797 (Chenodeoxycholic Acid 136.781)
  RLU: 432.183 RLU
Time (s) 137.562 (Taurocholic Acid 137.563, Chenodeoxycholic Acid 137.546)
  RLU: 452.404 RLU
Time (s) 143.578 (Taurocholic Acid 143.563, Chenodeoxycholic Acid 143.546)
  RLU: 380.071 RLU
Time (s) 149.578 (Taurocholic Acid 149.563, Chenodeoxycholic Acid 149.546)
  RLU: 382.743 RLU
Time (s) 155.578 (Taurocholic Acid 155.563, Chenodeoxycholic Acid 155.546)
  RLU: 336.968 RLU
Time (s) 161.578 (Taurocholic Acid 161.563, Chenodeoxycholic Acid 161.546)
  RLU: 359.379 RLU
Time (s) 167.578 (Taurocholic Acid 167.563, Chenodeoxycholic Acid 167.546)
  RLU: 343.975 RLU
Time (s) 173.578 (Taurocholic Acid 173.563, Chenodeoxycholic Acid 173.546)
  RLU: 278.705 RLU
Time (s) 179.578 (Taurocholic Acid 179.563, Chenodeoxycholic Acid 179.546)
  RLU: 300.666 RLU
Time (s) 191.578 (Taurocholic Acid 191.563, Chenodeoxycholic Acid 191.546)
  RLU: 185.369 RLU
Time (s) 197.578 (Taurocholic Acid 197.563, Chenodeoxycholic Acid 197.546)
  RLU: 161.87 RLU
Time (s) 209.578 (Taurocholic Acid 209.563, Chenodeoxycholic Acid 209.546)
  RLU: 179.275 RLU
Time (s) 221.578 (Taurocholic Acid 221.563, Chenodeoxycholic Acid 221.546)
  RLU: 182.465 RLU
Time (s) 233.578 (Taurocholic Acid 233.563, Chenodeoxycholic Acid 233.546)
  RLU: 198.132 RLU
Time (s) 239.578 (Taurocholic Acid 239.563, Chenodeoxycholic Acid 239.546)
  RLU: 183.585 RLU
Time (s) 245.578 (Taurocholic Acid 245.563, Chenodeoxycholic Acid 245.546)
  RLU: 212.748 RLU
Time (s) 293.578 (Taurocholic Acid 293.563, Chenodeoxycholic Acid 293.546)
  RLU: 209.963 RLU
Time (s) 299.578 (Taurocholic Acid 299.563, Chenodeoxycholic Acid 299.546)
  RLU: 216.371 RLU
Time (s) 305.578 (Taurocholic Acid 305.563, Chenodeoxycholic Acid 305.546)
  RLU: 208.994 RLU
Time (s) 311.578 (Taurocholic Acid 311.563, Chenodeoxycholic Acid 311.546)
  RLU: 184.812 RLU
Time (s) 317.578 (Taurocholic Acid 317.563, Chenodeoxycholic Acid 317.546)
  RLU: 189.014 RLU
Time (s) 323.578 (Taurocholic Acid 323.563, Chenodeoxycholic Acid 323.546)
  RLU: 182.748 RLU
Time (s) 329.578 (Taurocholic Acid 329.563, Chenodeoxycholic Acid 329.546)
  RLU: 195.394 RLU
Time (s) 335.578 (Taurocholic Acid 335.563, Chenodeoxycholic Acid 335.546)
  RLU: 190.135 RLU
Time (s) 341.578 (Taurocholic Acid 341.563, Chenodeoxycholic Acid 341.546)
  RLU: 187.029 RLU
Time (s) 347.578 (Taurocholic Acid 347.563, Chenodeoxycholic Acid 347.546)
  RLU: 164.841 RLU
Time (s) 353.578 (Taurocholic Acid 353.563, Chenodeoxycholic Acid 353.546)
  RLU: 198.762 RLU
Time (s) 359.578 (Taurocholic Acid 359.563, Chenodeoxycholic Acid 359.546)
  RLU: 181.785 RLU
Lowest concentration with significantly increased fluorescence vs empty vector (p < 0.01)
  Activation threshold concentration TAS2R14: 30 µM
screening
  Receptor response TAS2R14: activated
